One data set concerns Mtb H37Rv. The data set can be described thus: In vitro qHTS assay against Mtb H37Rv (IC90). It is filed as cell-based, M. tuberculosis. Particulars: for IC90: read-out: Mtb H37Rv IC90; for fold more active against Mtb H37Rv than corresponding analog: 48 vs 23, 57 vs 56, 60 vs 24.
Another data set concerns Mtb H37Ra (ATCC 25177). As to the kind of experiment: In vitro screen versus Mtb H37Ra (Alamar blue microdilution broth assay, MIC99). It is filed as cell-based, M. tuberculosis. The note with it: Mycobacterium tuberculosis; lowest drug concentration that completely inhibited growth; read-out: Mtb H37Ra MIC99. Here is the method: The initial screening set and selected other compounds were tested for their inhibitory activity against Mtb H37Ra (ATCC 25177) and MAC NJ211 strains. Screening was performed at 1.28 and 12.8 μg/mL in Middlebrook 7H9 broth supplemented with 0.2% glycerol and ADC enrichment using a colorimetric (Alamar blue) microdilution broth assay by reported methods.[15]
(Resazurin is reduced to fluorescent resorufin, in cell work by metabolically active cells.)

Where [1] appears, read: Mycobacterium tuberculosis, H37RV, concentration that inhibits bacterial growth by 90%.
[2] abbreviates: concentration that inhibits bacterial growth by 90%.

In brackets after ≈: the same amount, converted by molar mass. Read-outs that look alike come from different tables or passages of the source.

What is called IC90 is the concentration needed for an effect of 90%. A word on the melting point: it is the temperature, or range, at which the solid turns liquid. As usually defined, the MIC99 is the lowest concentration that inhibits either 99% of growth or 99% of the strains tested, depending on the study.

Consider `CSc1ccc(/C=C2/C(C)=C(C(C)C(=O)NCCN(C)C)c3cc(F)ccc32)cc1` (stereo not shown) [Compound 44, (Z)-N-(2-(Dimethylamino)ethyl)-2-(5-fluoro-2-methyl-1-(4-(methylthio)benzylidene)-1H-inden-3-yl)propanamide], for which the “fold less active against Mtb H37Rv than desmethyl analog” value in the data set on Mtb H37Rv (44 vs 18) was 2 fold. Besides, the IC90 in the data set with Mtb H37Rv (setting [1]) was 13.6 ± 0.89 µM.

Turning to `CCN(CC)CCNC(=O)CC1=C(C)/C(=C/c2nc3ccccc3s2)c2ccc(F)cc21` [Compound 40, (Z)-2-(1-(Benzo[d]thiazol-2-ylmethylene)-5-fluoro-2-methyl-1H-inden-3-yl)-N-(2-(diethylamino)ethyl)acetamide], the melting point lay in the range of 127 to 130 °C. In the data set with Mtb H37Rv (setting [1]), the IC90 was 3.47 ± 0.04 µM.

The compound `CSc1ccc(/C=C2/C(C)=C(C(C)C(=O)N3CCC[C@H]3CN3CCCC3)c3cc(F)ccc32)cc1` (stereo partly drawn) [Compound 52, 2-((Z)-5-Fluoro-2-methyl-1-(4-(methylthio)benzylidene)-1H-inden-3-yl)-1-((S)-2-(pyrrolidin-1-ylmethyl)pyrrolidin-1-yl)propan-1-one] registered a melting point of 80 to 82 °C. In the data set on Mtb H37Rv (setting [1]), the IC90 is 2.55 ± 0.03 µM.

For the compound `CSc1ccc(/C=C2/C(C)=C(C(C)C(=O)N3CCN(c4ccncc4)CC3)c3cc(F)ccc32)cc1` (stereo not shown) [Compound 55, (Z)-2-(5-Fluoro-2-methyl-1-(4-(methylthio)benzylidene)-1H-inden-3-yl)-1-(4-(pyridin-4-yl)piperazin-1-yl)propan-1-one], the IC90 in the data set on Mtb H37Rv (setting [1]) is 2.89 ± 0.09 µM.

Take `CC(=O)O[C@H]1C(=O)[C@@]2(C)[C@H]([C@H](OC(=O)c3ccccc3)[C@]3(O)C[C@H](OC(=O)[C@H](O)[C@@H](NC(=O)c4ccccc4)c4ccccc4)C(C)=C1C3(C)C)[C@]1(OC(C)=O)CO[C@@H]1C[C@@H]2O` [Compound 14, Taxol]: the MIC99 in the data set on Mtb H37Ra (ATCC 25177) was 16 µg/mL (≈ 18.7 µM).

On to `CSc1ccc(/C=C2/C(C)=C(C(C)C(=O)NCCCN3CCCCC3C)c3cc(F)ccc32)cc1` (stereo not shown) [Compound 50, (Z)-2-(5-Fluoro-2-methyl-1-(4-(methylthio)benzylidene)-1H-inden-3-yl)-N-(3-(2-methylpiperidin-1-yl)propyl)propanamide], for which the melting point lay within 87 to 89 °C. Besides, the IC90 in the data set with Mtb H37Rv (setting [1]) was found to be 1.64 ± 0.07 µM.

As for `COC(=O)[C@H](C)NC(=O)CC1=C(C)/C(=C/c2ccc(SC)cc2)c2ccc(F)cc21` [Compound 37, (S,Z)-Methyl 2-(2-(5-fluoro-2-methyl-1-(4-(methylthio)benzylidene)-1H-inden-3-yl)acetamido)propanoate], the melting point lay within 151 to 154 °C. Moreover, in the data set on Mtb H37Rv (setting [1]), the IC90 worked out at 3.04 ± 0.1 µM.

With `CC1=C(CC(=O)NCCN(C)C)c2cc(F)ccc2/C1=C\c1nc2ccccc2s1` [Compound 38, (Z)-2-(1-(Benzo[d]thiazol-2-ylmethylene)-5-fluoro-2-methyl-1H-inden-3-yl)-N-(2-(dimethylamino)ethyl)acetamide], the melting point lay within 132 to 135 °C. The IC90 in the data set with Mtb H37Rv (setting [1]) turned out to be 4.75 ± 0.05 µM.

The compound `CSc1ccc(/C=C2/C(C)=C(C(C)C(=O)N3CCN(CCCN(C)C)CC3)c3cc(F)ccc32)cc1` (stereo not shown) [Compound 54, (Z)-1-(4-(3-(Dimethylamino)propyl)piperazin-1-yl)-2-(5-fluoro-2-methyl-1-(4-(methylthio)benzylidene)-1H-inden-3-yl)propan-1-one] showed a melting point of 78 to 80 °C. In addition, in the data set on Mtb H37Rv (setting [1]), the IC90 was determined as 3.72 ± 0.06 µM.

`CSc1ccc(/C=C2/C(C)=C(CC(=O)NCCC3CCCN3C)c3cc(F)ccc32)cc1` (stereo not shown) [Compound 27, (Z)-2-(5-Fluoro-2-methyl-1-(4-(methylthio)benzylidene)-1H-inden-3-yl)-N-(2-(1-methylpyrrolidin-2-yl)ethyl)acetamide]: the IC90 in the data set with Mtb H37Rv (setting [1]) stood at 4.34 ± 0.16 µM.

Consider `CSc1ccc(/C=C2/C(C)=C(C(C)C(=O)N3CCC(N4CCCCC4)CC3)c3cc(F)ccc32)cc1` (stereo not shown) [Compound 53, (Z)-1-([1,4'-Bipiperidin]-1'-yl)-2-(5-fluoro-2-methyl-1-(4-(methylthio)benzylidene)-1H-inden-3-yl)propan-1-one], for which the melting point lay within 80 to 82 °C. In addition, the IC90 with Mtb H37Rv (setting [1]) turned out to be 2.84 ± 0.06 µM.

Turning to `CCN(CC)CCNC(=O)C(C)C1=C(C)/C(=C/c2ccc(SC)cc2)c2ccc(F)cc21` (stereo not shown) [Compound 46, (Z)-N-(2-(Diethylamino)ethyl)-2-(5-fluoro-2-methyl-1-(4-(methylthio)benzylidene)-1H-inden-3-yl)propanamide], the melting point is 75 to 77 °C. In the data set on Mtb H37Rv (setting [1]), the IC90 came out at 4.19 ± 0.2 µM.

Compound `CCCCN(CCCC)CCCNC(=O)C(C)C1=C(C)/C(=C/c2ccc(SC)cc2)c2ccc(F)cc21` (stereo not shown) [Compound 47, (Z)-N-(3-(Dibutylamino)propyl)-2-(5-fluoro-2-methyl-1-(4-(methylthio)benzylidene)-1H-inden-3-yl)propanamide] came in with a melting point of 121 to 124 °C. Moreover, the IC90 with Mtb H37Rv (setting [1]) is 1.22 ± 0.04 µM.

For `CCN1CCC[C@H]1CNC(=O)CC1=C(C)/C(=C/c2ccc(SC)cc2)c2ccc(F)cc21` [Compound 28, (S,Z)-N-((1-Ethylpyrrolidin-2-yl)methyl)-2-(5-fluoro-2-methyl-1-(4-(methylthio)benzylidene)-1H-inden-3-yl)acetamide], the melting point fell in the range of 74 to 76 °C. Also, the IC90 in the data set on Mtb H37Rv (setting [1]) stood at 3.98 ± 0.03 µM.

In the case of `CC1=C(CC(=O)NCCN2CCCC2)c2cc(F)ccc2/C1=C\c1nc2ccccc2s1` [Compound 41, (Z)-2-(1-(Benzo[d]thiazol-2-ylmethylene)-5-fluoro-2-methyl-1H-inden-3-yl)-N-(2-(pyrrolidin-1-yl)ethyl)acetamide], the 90% effect concentration (IC90) in the data set on Mtb H37Rv (setting [1]) was 6.7 ± 0.04 µM.

With `CSc1ccc(/C=C2/C(C)=C(CC(=O)N3CCN(c4ccncc4)CC3)c3cc(F)ccc32)cc1` [Compound 32, (Z)-2-(5-Fluoro-2-methyl-1-(4-(methylthio)benzylidene)-1H-inden-3-yl)-1-(4-(pyridin-4-yl)piperazin-1-yl)ethanone], the melting point lay within 171 to 174 °C. Besides, the IC90 in the data set with Mtb H37Rv (setting [1]) came out at 3.07 ± 0.04 µM.

With `CSc1ccc(/C=C2/C(C)=C(C(C)C(=O)N(C)CCN(C)C(=O)[C@@H](N)C(C)C)c3cc(F)ccc32)cc1` (stereo partly drawn) [Compound 57, (2S)-2-Amino-N-(2-(2-((Z)-5-fluoro-2-methyl-1-(4-(methylthio)benzylidene)-1H-inden-3-yl)-N-methylpropanamido)ethyl)-N,3-dimethylbutanamide], the melting point was 60 to 62 °C. Further, the “fold more active against Mtb H37Rv than corresponding analog” value in the data set with Mtb H37Rv turned out to be 6 fold. Also, the IC90 in the data set with Mtb H37Rv (setting [1]) came out at 0.74 µM.

Consider `CSc1ccc(/C=C2/C(C)=C(CC(=O)NCCCn3ccnc3)c3cc(F)ccc32)cc1` [Compound 33, (Z)-N-(3-(1H-Imidazol-1-yl)propyl)-2-(5-fluoro-2-methyl-1-(4-(methylthio)benzylidene)-1H-inden-3-yl)acetamide], for which the melting point was 103 to 105 °C. Moreover, the IC90 in the data set on Mtb H37Rv (setting [1]) is 1.18 ± 0.01 µM.

The compound `CSc1ccc(/C=C2/C(C)=C(CC(=O)NCc3ccco3)c3cc(F)ccc32)cc1` [Compound 36, (Z)-2-(5-Fluoro-2-methyl-1-(4-(methylthio)benzylidene)-1H-inden-3-yl)-N-(furan-2-ylmethyl)acetamide] registered a melting point of 166 to 168 °C. In addition, the IC90 in the data set on Mtb H37Rv (setting [1]) is over 100 µM. In addition, the “Mtb H37Rv IC90” value in the data set on Mtb H37Rv (setting [2]) is “inactive”.

With `CNCCN(C)C(=O)C(C)C1=C(C)/C(=C/c2ccc(SC)cc2)c2ccc(F)cc21` (stereo not shown) [Compound 48, (Z)-2-(5-Fluoro-2-methyl-1-(4-(methylthio)benzylidene)-1H-inden-3-yl)-N-methyl-N-(2-(methylamino)ethyl)propanamide], the “fold more active against Mtb H37Rv than corresponding analog” value in the data set with Mtb H37Rv is listed as 4 fold. Also, the IC90 in the data set with Mtb H37Rv (setting [1]) was found to be 2.11 ± 0.08 µM.

In the case of `CC1=C(CC(=O)N(C)CCN(C)C)c2cc(F)ccc2/C1=C\c1nc2ccccc2s1` [Compound 39, (Z)-2-(1-(Benzo[d]thiazol-2-ylmethylene)-5-fluoro-2-methyl-1H-inden-3-yl)-N-(2-(dimethylamino)ethyl)-N-methylacetamide], the melting point was in the range of 103 to 106 °C. Besides, the IC90 in the data set with Mtb H37Rv (setting [1]) stood at 9.97 ± 0.33 µM.

`CSc1ccc(/C=C2/C(C)=C(CC(=O)N3CCC(N4CCCCC4)CC3)c3cc(F)ccc32)cc1` [Compound 30, (Z)-1-([1,4'-Bipiperidin]-1'-yl)-2-(5-fluoro-2-methyl-1-(4-(methylthio)benzylidene)-1H-inden-3-yl)ethanone]: the melting point was in the range of 145 to 148 °C. For the same compound, the IC90 in the data set on Mtb H37Rv (setting [1]) came to 2.75 ± 0.02 µM.

Take `CCN1CCC[C@H]1CNC(=O)C(C)C1=C(C)/C(=C/c2ccc(SC)cc2)c2ccc(F)cc21` (stereo partly drawn) [Compound 51, N-(((S)-1-Ethylpyrrolidin-2-yl)methyl)-2-((Z)-5-fluoro-2-methyl-1-(4-(methylthio)benzylidene)-1H-inden-3-yl)propanamide]: the IC90 in the data set on Mtb H37Rv (setting [1]) was found to be 2.41 ± 0.04 µM.

As for `CSc1ccc(/C=C2/C(C)=C(C(C)C(=O)NCCN3CCCCC3)c3cc(F)ccc32)cc1` (stereo not shown) [Compound 49, (Z)-2-(5-Fluoro-2-methyl-1-(4-(methylthio)benzylidene)-1H-inden-3-yl)-N-(2-(piperidin-1-yl)ethyl)propanamide], in the data set with Mtb H37Rv (setting [1]), the IC90 came out at 1.99 ± 0.06 µM.

`CSc1ccc(/C=C2/C(C)=C(C(C)C(=O)N(C)CCN(C)C)c3cc(F)ccc32)cc1` (stereo not shown) [Compound 45, (Z)-N-(2-(Dimethylamino)ethyl)-2-(5-fluoro-2-methyl-1-(4-(methylthio)benzylidene)-1H-inden-3-yl)-N-methylpropanamide]: the IC90 in the data set with Mtb H37Rv (setting [1]) is 5.95 ± 0.06 µM.

Consider “(Z)-N-(3-(Dibutylamino)propyl)-2-(5-fluoro-2-methyl-1-(4-(methylthio)benzylidene)-1H-inden-3-yl)acetamide [Compound 22]”, for which the IC90 in the data set on Mtb H37Rv (setting [2]) amounted to 0.85 µM.

The values are drawn from PMC5074515 (PLoS ONE, 2016).
